Laboratory results taken from PubChem BioAssay (NCI).
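These data come from cells grown in 96-well plates and exposed to compound for 48 hours at five concentrations. GI50: concentration for 50% inhibition of growth. TGI is the concentration that stops growth completely.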

What was measured:
Experiment in all cases: DTP human tumour cell line panel, 48 h
HOP-62 NSCLC = tested on: HOP-62 NSCLC
SF-268 CNS = tested on: SF-268 CNS
HL-60(TB) leukemia = tested on: HL-60(TB) leukemia
KM12 colon = tested on: KM12 colon
DU-145 prostate = tested on: DU-145 prostate
SK-MEL-5 melanoma = tested on: SK-MEL-5 melanoma
M14 melanoma = tested on: M14 melanoma
K-562 leukemia = tested on: K-562 leukemia
NCI-H522 lung = tested on: NCI-H522 lung
RXF 393 renal = tested on: RXF 393 renal

| SMILES | GI50 (HOP-62 NSCLC) | TGI (HOP-62 NSCLC) | GI50 (SF-268 CNS) | TGI (SF-268 CNS) | GI50 (HL-60(TB) leukemia) | TGI (HL-60(TB) leukemia) | GI50 (KM12 colon) | TGI (KM12 colon) | GI50 (DU-145 prostate) | TGI (DU-145 prostate) | GI50 (SK-MEL-5 melanoma) | TGI (SK-MEL-5 melanoma) | GI50 (M14 melanoma) | TGI (M14 melanoma) | GI50 (K-562 leukemia) | TGI (K-562 leukemia) | GI50 (NCI-H522 lung) | TGI (NCI-H522 lung) | GI50 (RXF 393 renal) | TGI (RXF 393 renal) |
| --- | --- | --- | --- | --- | --- | --- | --- | --- | --- | --- | --- | --- | --- | --- | --- | --- | --- | --- | --- | --- |
| Cc1ccc(-c2nc3cc(Cl)c(Cl)cc3nc2C#N)cc1 | > 100 µM | > 100 µM | > 100 µM | > 100 µM | > 100 µM | > 100 µM | > 100 µM | > 100 µM | > 100 µM | > 100 µM | > 100 µM | > 100 µM | > 100 µM | > 100 µM | > 100 µM | > 100 µM | > 100 µM | > 100 µM | > 100 µM | > 100 µM |
| O=C(CCl)Nc1cc(Cl)c(Cl)cc1Cl |  | 3.89 µM |  | 4.62 µM |  | 7.74 µM |  | 0.83 µM |  | 7.06 µM |  | 3.17 µM |  | 2.96 µM |  | > 10 µM |  | 2.02 µM |  | 4.58 µM |
| O=C(Nc1cccc(-n2cc(-c3ccncc3)c(-c3ccc(O)c(Cl)c3)n2)c1)c1cc(C(F)(F)F)cc(C(F)(F)F)c1 | 17.5 µM | > 50 µM | 7.26 µM | > 50 µM | 9.4 µM | 27.4 µM | 2.05 µM | 12.5 µM | 12.6 µM | > 50 µM | 4.61 µM | 16.9 µM | 3.3 µM | > 50 µM | 2.57 µM | > 50 µM | 1.56 µM | 12.3 µM | 1.25 µM | 9.1 µM |
| NC(Cc1c[nH]c2ccc(F)cc12)C(=O)O (stereo not given) | 480 µM | 2160 µM | 677 µM | > 2500 µM | 737 µM | > 2500 µM | 760 µM | > 2500 µM | 1310 µM | > 2500 µM | 375 µM | 711 µM | 643 µM | > 2500 µM | 887 µM | > 2500 µM | 1460 µM | > 2500 µM | 887 µM | > 2500 µM |
| Cc1ccc(/C=C/c2c(C(=O)/C=C/c3ccc(Cl)cc3)c(C)nc3ccccc23)cc1 | 2.15 µM | 4.68 µM | 2.15 µM | 5.85 µM | 2.12 µM | 5.76 µM | 1.87 µM | 3.77 µM | 1.74 µM | 3.27 µM | 1.62 µM | 3 µM | 1.64 µM | 3.4 µM | 2.63 µM | > 100 µM | 1.86 µM | 5.94 µM | 1.79 µM | 3.45 µM |
